Source: patent publication US12071436B2, “Anti-parasitic compounds and uses thereof” (Memorial Sloan-Kettering Cancer Center, priority 2016, dated 2024)
Where two headings read alike, the source gives them in different places.

Assays:
[1] = test system: P. falciparum Dd2; assay: Anti-plasmodial growth inhibition, SYBR green I-based DNA quantification; format: cell-based; settings: Plasmodium falciparum, 72 h incubation, n=3
Protocol: (§1) Select compounds described herein were evaluated for structure-activity analyses for anti-plasmodial activity in vitro. For Dd2 EC50 (M), calculations were for n=3. For HepG2 EC50 (M), calculations were for n=1. For the human microsomal stability determination, t was 60 minutes.
Different dilutions of the compound in RPMI 1640 (Life Technologies) from a stock of 10 mM in dimethyl sulfoxide (DMSO) were added to the culture at a 1% parasitemia and 2% hematocrit in 96-well black plates (Santa Cruz Biotechnology). Maximum DMSO concentration in the culture never exceeded 0.25%. Chloroquine at 1 μM was used as a positive control to determine the baseline value. Following 72 h incubation at 37° C., the ability of the compounds to inhibit growth of the parasite was determined by a SYBR green I-based DNA quantification assay (See Bennett et al., 2004, Chemother. 48, 1807-1810; see also Johnson et al., 2007, Antimicrob. Agents. Chemother. 51, 1926-1933; Smilkstein et al., 2004, Antimicrob. Agents. Chemother. 48, 1803-1806). EC50 was calculated (n=3) from a dose response curve that was generated from a concentration range of 0-20 μM using GraphPad Prism v5.0.

[2] = test system: HepG2 human hepatoma cells; assay: HepG2 cytotoxicity, MTS cell proliferation assay; format: cell-based; settings: 48 h, n=1
Protocol: as §1
Selected compounds were evaluated for cytotoxicity using HepG2 human hepatoma cells. A 384-well clear bottom plate was seeded with 2,500 cells/well and incubated for 24 h. Serial dilutions of the compound (were added to the plate and plates were incubated for an additional 48 h. Viability of cells were assessed by MTS [(3-(4,5-dimethylthiazol-2-yl)-5-(3-carboxymethoxyphenyl)-2-(4-sulfophenyl)-2H-tetrazolium) cell proliferation assay (CellTiter 96® Aqueous non-radioactive cell proliferation assay, Promega) (See Cory et al., Cancer Communications, 3, 1991, p. 207-212).

[3] = Plasma pharmacokinetics and liver distribution study in female BALB/c mice; format: in vivo, mouse; settings: for AUC(0-inf) / Tmax / half-life / Cmax: female, BALB/c, mouse
Protocol: A plasma pharmacokinetics and liver distribution study of selected compounds, including Pyrrolopyridine-008 (2015-foleyc-216), Pyrrolopyridine-D20-ent (2015-foleyc-217), and Pyrrolopyridine-M03 (2015-foleyc-218), in female BALB/c mice was conducted following a single intraperitoneal and oral administration. […] The blood samples were collected from a set of […] mice at each time point in labeled micro centrifuge tube containing K2EDTA as anticoagulant. Plasma samples were separated by centrifugation at 4000 rpm for 10 min and stored below −70° C. until bioanalysis. After collection of blood sample, animals were humanely euthanized by carbon dioxide asphyxiation to collect liver from Group 1 and Group 2 at all the time points. The collected tissues were rinsed in PBS and were homogenized with nine times of liver weight in ice cold phosphate buffer saline (pH 7.4) and stored below −70° C. until bio-analysis. Total homogenate volume was ten times the tissue weight. All samples were processed for analysis by protein precipitation using acetonitrile and analyzed with fit-for-purpose LC-MS/MS method (LLOQ: 2.01 ng/mL for plasma and 50.30 ng/g for liver). Pharmacokinetic parameters were calculated using the non-compartmental analysis tool of Phoenix WinNonlin® (Version 6.3).

[4] = ip, Dose: 100 mg/kg, liver, read-out: PK (ip, plasma/liver) AUCinf, liver
[5] = ip, Dose: 100 mg/kg, liver, read-out: PK (ip, plasma/liver) Tmax, liver
[6] = ip, Dose: 100 mg/kg, liver, read-out: PK (ip, plasma/liver) t1/2, liver (converted)
[7] = ip, Dose: 100 mg/kg, plasma, read-out: PK (ip, plasma/liver) AUCinf, plasma
[8] = ip, Dose: 100 mg/kg, plasma, read-out: PK (ip, plasma/liver) Cmax, plasma
[9] = ip, Dose: 100 mg/kg, plasma, read-out: PK (ip, plasma/liver) Tmax, plasma
[10] = ip, Dose: 100 mg/kg, plasma, read-out: PK (ip, plasma/liver) t1/2, plasma (converted)
[11] = po, Dose: 100 mg/kg, liver, read-out: PK (po, plasma/liver) Area under the curve (AUCinf), liver
[12] = po, Dose: 100 mg/kg, liver, read-out: PK (po, plasma/liver) Tmax, liver
[13] = po, Dose: 100 mg/kg, liver, read-out: PK (po, plasma/liver) t1/2, liver (converted)
[14] = po, Dose: 100 mg/kg, plasma, read-out: PK (po, plasma/liver) Area under the curve (AUCinf), plasma
[15] = po, Dose: 100 mg/kg, plasma, read-out: PK (po, plasma/liver) Cmax, plasma
[16] = po, Dose: 100 mg/kg, plasma, read-out: PK (po, plasma/liver) Tmax, plasma
[17] = po, Dose: 100 mg/kg, plasma, read-out: PK (po, plasma/liver) t1/2, plasma (converted)

SMILES | EC50 [1] [µM] | EC50 [2] [µM] | Relative Bioavailability, Frel (AUCinf po / AUCinf ip) ([3]; Dose: 100 mg/kg) [%] | AUC(0-inf) [3, 4] [µM·h] | Tmax [3, 5] [h] | half-life [3, 6] [h] | AUC(0-inf) [3, 7] [µM·h] | Cmax [3, 8] [µM] | Tmax [3, 9] [h] | half-life [3, 10] [h] | AUC(0-inf) [3, 11] [µM·h] | Tmax [3, 12] [h] | half-life [3, 13] [h] | AUC(0-inf) [3, 14] [µM·h] | Cmax [3, 15] [µM] | Tmax [3, 16] [h] | half-life [3, 17] [h] | PK (ip, plasma/liver) Cmax, liver ([3]; ip, Dose: 100 mg/kg, liver) [µM] | PK (po, plasma/liver) Cmax, liver ([3]; po, Dose: 100 mg/kg, liver) [µM] | also measured
CC(C)NC(=O)N1Cc2cc(C(=O)NCc3ccc4c(c3)OCO4)nc(-c3cccc(-c4cc5ccccc5o4)c3)c2[C@H]1CCO [2015-foleyc-241, (R)-N^6-(benzo[d][1,3]dioxol-5-ylmethyl)-4-(3-(benzofuran-2-yl)phenyl)-3-(2-hydroxyethyl)-N^2-isopropyl-1,3-dihydro-2H-pyrrolo[3,4-c]pyridine-2,6-dicarboxamide] | 4.99 ± 0.59 | > 100 |  |  |  |  |  |  |  |  |  |  |  |  |  |  |  |  |  | 
CC(C)(C)[S@@+]([O-])N1Cc2cc(C(N)=O)nc(-c3cccc(-c4cccnc4)c3)c2[C@H]1CCO [2015-foleyc-247] | 1.48 ± 0.14 | > 100 |  |  |  |  |  |  |  |  |  |  |  |  |  |  |  |  |  | 
CC(C)NC(=O)N1Cc2cc(C(=O)NCC(F)(F)F)nc(-c3cccc(-c4cc5ccccc5o4)c3)c2[C@H]1CCO [drawing 328] |  |  |  |  |  |  |  |  |  |  |  |  |  |  |  |  |  |  |  | Relative Bioavailability, Frel (AUCinf po / AUCinf ip) ([3]; Dose: 50 mg/kg): 57%; AUC(0-inf) ([3]; ip, Dose: 50 mg/kg, liver, read-out: PK (ip, plasma/liver) AUCinf, liver): 186 µM·h; Tmax ([3]; ip, Dose: 50 mg/kg, liver, read-out: PK (ip, plasma/liver) Tmax, liver): 0.1 h; half-life ([3]; ip, Dose: 50 mg/kg, liver, read-out: PK (ip, plasma/liver) t1/2, liver (converted)): 2.2 h; AUC(0-inf) ([3]; ip, Dose: 50 mg/kg, plasma, read-out: PK (ip, plasma/liver) AUCinf, plasma): 52.7 µM·h; Cmax ([3]; ip, Dose: 50 mg/kg, plasma, read-out: PK (ip, plasma/liver) Cmax, plasma): 14 µM; Tmax ([3]; ip, Dose: 50 mg/kg, plasma, read-out: PK (ip, plasma/liver) Tmax, plasma): 1 h; half-life ([3]; ip, Dose: 50 mg/kg, plasma, read-out: PK (ip, plasma/liver) t1/2, plasma (converted)): 1.2 h; AUC(0-inf) ([3]; po, Dose: 50 mg/kg, liver, read-out: PK (po, plasma/liver) Area under the curve (AUCinf), liver): 108 µM·h; Tmax ([3]; po, Dose: 50 mg/kg, liver, read-out: PK (po, plasma/liver) Tmax, liver): 0.25 h; half-life ([3]; po, Dose: 50 mg/kg, liver, read-out: PK (po, plasma/liver) t1/2, liver (converted)): 3.1 h; AUC(0-inf) ([3]; po, Dose: 50 mg/kg, plasma, read-out: PK (po, plasma/liver) Area under the curve (AUCinf), plasma): 29.9 µM·h; Cmax ([3]; po, Dose: 50 mg/kg, plasma, read-out: PK (po, plasma/liver) Cmax, plasma): 10.9 µM; Tmax ([3]; po, Dose: 50 mg/kg, plasma, read-out: PK (po, plasma/liver) Tmax, plasma): 0.25 h; half-life ([3]; po, Dose: 50 mg/kg, plasma, read-out: PK (po, plasma/liver) t1/2, plasma (converted)): 8.2 h; PK (ip, plasma/liver) Cmax, liver ([3]; ip, Dose: 50 mg/kg, liver): 58.6 µM; PK (po, plasma/liver) Cmax, liver ([3]; po, Dose: 50 mg/kg, liver): 53.8 µM
CC(C)(C)[S@@+]([O-])N1Cc2cc(C(=O)NCc3ccc4c(c3)OCO4)nc(-c3cccc(-c4cccnc4)c3)c2[C@H]1CCO [drawing 329] |  |  | 49 | 667 | 0.5 | 3.5 | 158 | 33.4 | 0.5 | 2.4 | 238 | 4 | 16.9 | 77.1 | 27.6 | 1 | 1.1 | 87.6 | 39.6 | 
CC(C)(C)[S@@+]([O-])N1Cc2cc(C(=O)NCc3ccccc3F)nc(-c3cccc(-c4cccnc4)c3)c2[C@H]1CCO [drawing 330] |  |  | 22 | 306 | 0.25 | 4.6 | 168 | 72.6 | 1 | 1.9 | 125 | 0.5 | 6.4 | 36.7 | 56.4 | 0.5 | 2.1 | 111.3 | 49.2 | 
CC(C)(C)[S@+]([O-])N1Cc2cc(C(=O)NCc3ccc4c(c3)OCO4)nc(-c3cccc(-c4cccnc4)c3)c2[C@@H]1CCO [ent-Tan003-008] | 0.86 ± 0.08 |  |  |  |  |  |  |  |  |  |  |  |  |  |  |  |  |  |  | 
